From patent US5030647A, “Anti-inflammatory thienylbenzylamine compounds” (Boehringer Ingelheim Pharmaceuticals, Inc., priority 1990, dated 1991) come the findings set out here.

In one data set the test system is human PMN. Put plainly: Chemotaxis of human peripheral leukocytes (human PMN chemotaxis, FMLP as chemoattractant). The format is cell-based. The following applies: Leukocyte, FMLP 1×10^-8 M; for inhibition at 1 µM: read-out: PERCENT INHIBITION (human PMN chemotaxis) 1 μM; for inhibition at 0.01 µM: read-out: PERCENT INHIBITION (human PMN chemotaxis) 0.01 μm. On the procedure:
A) Equal parts of citrated peripheral venous blood drawn from a normal volunteer were mixed with saline containing 6% dextran. The mixture was allowed to sediment for 30-40 minutes in a 50 ml polypropylene centrifuge tube. B) The plasma was decanted and centrifuged at 1500 rpm for 7 minutes and washed with saline. C) The supernatant was decanted and the contaminating red blood cells were eliminated by adding ice cold lysing solution and allowing the cell suspension to stand on ice for 5 minutes. […] E) The tubes were centrifuged at 400g for 30 minutes at room temperature. F) The supernatant was decanted and the PMNs (pelleted on the bottom of the tubes) were washed with saline and with Hanks buffer. The cells were adjusted to a final concentration of 3×10^6 cells/ml in Hanks buffer containing 0.5% BSA. 1) Chemoattractant: serial dilution was prepared of the stocks (10^-3 M) N-Formyl-methionyl-leucylphenylalanine in Hanks buffer and 130 μl of 1×10^-8 M solution was pipetted into the lower bottom chamber. The bottom chamber of the negative control was filled with saline. 2) Placed Millipore membranes to completely cover the wells and allowed the liquid to absorb. 3) Placed on upper chamber and tighten retaining nuts. 1) Sample preparation: Mixed equal volume of sample diluted in Hanks buffer containing […] and cell suspension in a test tube prior to pipetting 200 μl into appropriate duplicate chambers. 2) Incubated chambers at 37° C. for 40-60 minutes. 10) Three to five fields per membrane were counted with the aid of the Image Analyser (optimal 40-10). Special effort was made to select a standard for evaluating the cell monolayer in which the distribution of cells in the field of view is uniform. The number of cells at each […] level beneath the selected monolayer was then counted and the chemotactic index (CI) calculated by multiplying the individual cell count at each level by their corresponding depth of penetration, and taking the sum of these numbers. 11) The results in Table II are recorded as percent inhibition. Percent inhibition by each thienylbenzylamime was calculated as follows: [formula] The CI of the control was determined by conducting the assay with N-formyl-methionyl-leucylphenylalanine (FMLP) alone without any thienlbenzylamine. The background was determined by conducting the assay without any FMLP.

Another data set concerns paw swelling. The data set can be described thus: Reverse passive Arthus reaction, inhibition of paw swelling after oral dosing. The format is in vivo. The following applies: Rattus norvegicus, po, 30 mg/kg oral, rats. On the procedure:
The reverse passive Arthus reaction is initiated by the interaction of antigen and antibody resulting in the formation of a precipitating immune complex, followed by fixation of complement, accumulation of leukocytes, edema and hemorrhage. The immunopathology of rheumatoid arthritis involves many of the parameters found in this reaction. Test groups (5 rats per group) are dosed orally with compounds one hour prior to the sub-plantar injection into the right hind paw of rabbit anti-ovalbumin antibody (50 μg/0.1 ml). Immediately afterwards, ovalbumin (Sigma, #5503) (5 mg/0.2 ml) is injected i.v. via the tail vein. The right hind paw volume is measured at hourly intervals, from one to four hours after the injection of the immune reactants. The change in paw volume for each animal is calculated by subtracting zero hour paw volume (before injection) from the paw volume at the time of measurement. The mean of these values is calculated for each group. Results are expressed in Table I below as percent inhibition of paw swelling compared to untreated controls.

Data set [1] in a line: Hygroscopicity and stability in air of the hydrochloride salt. It counts as physicochemical. On the procedure: D. Hydrochloride salt of 5-chloro-2[(2-dimethylaminomethylphenyl) hydroxymethyl]thiophene 1.0 g of the 5-chloro-2-[(2-dimethylaminomethylphenyl)hydroxymethyl]thiophene prepared in C was dissolved in ether. The etheral solution was cooled to -80° C. Upon addition of an ethereal HCl solution a white precipitate was obtained which was immediately filtered under N2 and dried in high vacuum without heating.

[2] abbreviates: 2 h, 2 hours, read-out: % INHIBITION (of paw swelling) HOUR 2.
Setting [3] is: 3 h, 3 hours, read-out: % INHIBITION (of paw swelling) HOUR 3.
[4] abbreviates: 4 h, 4 hours, read-out: % INHIBITION (of paw swelling) HOUR 4.

By inhibition is commonly meant the relative decrease from the control value, in per cent.

Where two headings read alike, the source gives them in different places.

Take `Cc1ccc(C(O)c2ccccc2CN(C)C)s1` (stereo not drawn) [Compound 4, 2-[(2-dimethylaminomethylphenyl)hydroxymethyl]-5-methyl-thiophene]: the inhibition at 1 µM in the data set with human PMN is 55%. Further, the inhibition at 0.01 µM in the data set with human PMN came out at 12%. Besides, the inhibition in vivo at 30 mg/kg was 43.1% in the data set on paw swelling (setting [2]), 19.8% with paw swelling (setting [3]) and 4.2% in the data set with paw swelling (setting [4]).

In the case of `CN(C)Cc1ccccc1C(O)c1ccc(Cl)s1.Cl` (stereo not drawn) [Compound 2, 5-chloro-2-[(2-dimethylaminomethylphenyl)hydroxymethyl]thiophene hydrochloride], the hygroscopicity result in data set [1] was “extremely hygroscopic”. Further, the stability in air entry in data set [1] (in air) is “unstable in air”. In the data set with human PMN, the inhibition at 1 µM came out at 76% and the inhibition at 0.01 µM is 57%.

In the case of `CCN(CC)Cc1ccccc1C(O)c1ccc(Cl)s1` (stereo not drawn) [Compound 6, 5-chloro-2-[(2-diethylaminomethylphenyl)hydroxymethyl]thiophene], the inhibition at 1 µM with human PMN is 25%. Besides, in the data set with human PMN, the inhibition at 0.01 µM came out at 24%. Moreover, the inhibition in vivo at 30 mg/kg in the data set on paw swelling (setting [2]) was found to be 46%; in the data set on paw swelling (setting [3]), 35.9%; in the data set on paw swelling (setting [4]), 0%.

Regarding `CN(C)Cc1ccccc1Cc1ccc(Cl)s1` [Compound 12, 5-chloro-2-(2-dimethylaminomethylphenylmethyl)thiophene], in the data set with human PMN, the inhibition at 1 µM is 52%. Moreover, the inhibition at 0.01 µM in the data set with human PMN came to 54%. Further, the inhibition in vivo at 30 mg/kg was 65.8% with paw swelling (setting [2]), 51.1% with paw swelling (setting [3]) and 25.5% with paw swelling (setting [4]).

For `CN(C)Cc1ccccc1C(O)c1sccc1Cl` (stereo not drawn) [Compound 5, 3-chloro-2-[(2-dimethylaminomethylphenyl)hydroxymethyl]thiophene], in the data set on human PMN, the inhibition at 1 µM was determined as 34%. Moreover, the inhibition at 0.01 µM in the data set with human PMN came out at 34%. In addition, the inhibition in vivo at 30 mg/kg with paw swelling (setting [2]) turned out to be 35.6%; with paw swelling (setting [3]) it was 13.6%; with paw swelling (setting [4]) it was 32.3%.
